Measurements from patent US20260191793A1, “HBV SPECIFIC EXOSOMES AND USES THEREOF” (priority 2022, published 2026).

Assays:
HBV cccDNA = assay: HBV-infected HepG2-NTCP cells directly transfected with gRNA/Cas9 RNPs, HBV cccDNA qPCR; format: cell-based, Hepatitis B virus (HBV); details: direct transfection for 3 days
From the text: To test whether the synthetic gRNA/Cas9 can reduce newly formed HBV cccDNA in HepG2-NTCP cells, the cells with HBV particle-containing supernatants from HepDE19 cells (supernatants harvested 6 days after culture in Tet-free media) were infected. The HepG2-NTCP cells were infected with HBV particles for 6 days and then transfected with gRNA5, gRNA9, gRNA5 plus gRNA9 (in combination), or gRNAc RNPs for 3 days, followed by measuring HBV cccDNA. In another experiment, the infected HepG2-NTCP cells were incubated for 3 days with exosomes packaged with gRNA5, gRNA9, gRNA5 plus gRNA9 (in combination), or gRNAc RNPs, followed by measuring HBV cccDNA.
In another experiment, 1×10^6 HepG2-NTCP cells were infected using supernatants containing HBV particles from HepDE19 cells that were maintained for 6 days. The HBV-infected HepG2-NTCP cells were transfected with gRNA5, gRNA9, gRNA5 plus gRNA9, or gRNAc RNPs as described above. The cells were maintained for 3 days in a complete culture medium and then harvested for HBV cccDNA detection by qPCR.
Total and protein-free HBV DNAs were extracted from whole cell lysate using the Hirt DNA method according to a previously published protocol. […] HBV total DNA and cccDNA were analyzed by real-time PCR using a TaqMan PCR assay. […] The DNA levels were determined by the […] method and values were normalized to the control group.

HBV in HepG2-NTCP cells = assay: Infection of HepG2-NTCP cells with supernatants of gRNA/Cas9-transfected HepDE19 cells (infectious HBV particles); format: cell-based, Hepatitis B virus (HBV); details: HepG2-NTCP infected with supernatants of transfected HepDE19 cells, vs supernatants of gRNAc-transfected cells, qPCR
Protocol: To characterize the effects of synthetic gRNA5/Cas9 and gRNA9/Cas9 on HBV replication, the ability of HBV particles derived from HepDE19 cells that have been transfected with gRNA5, gRNA9, or gRNAc RNPs for 3 days to infect HepG2-NTCP cells was assessed. HepG2-NTCP cells were infected for 6 days with supernatants harvested from HepDE19 cells. Genomic DNA was isolated from HepG2-NTCP cells and used for qPCR quantification of HBV DNA.
HBV infectious particles were harvested from the supernatants of gRNA/Cas9-treated HepDE19 cells and used for the infection of HepG2-NTCP cells following a previously published method. Briefly, the supernatants of gRNA RNP-treated HepDE19 cells were harvested and concentrated using a PEG concentration kit (Cat #ab102538, Abcam, Waltham, MA). For HBV infection, 2.5×10^5 HepG2-NTCP cells were seeded in a 12-well plate and mixed with 10 μl concentrated HBV supernatants in 1 ml hepatocyte maintenance medium (HMM) (with 8% PEG8000 and 5% DMSO) at 37° C. for 16 h. The culture media were changed daily with fresh HMM. After 8 days, the cells were harvested and HBV DNA and cccDNA levels were determined as described below.
Total and protein-free HBV DNAs were extracted from whole cell lysate using the Hirt DNA method according to a previously published protocol. For HBV cccDNA analysis, the protein-free DNA was treated with 10 units of T5 exonuclease (NEB) at 37° C. for 30 min, followed by 95° C. for 5 min, and diluted 4-fold with nuclease-free water. Next, the cccDNA was cleaned with a DNA clean and concentrator kit (ZYMO Research, Irvine, CA) and used for PCR. HBV total DNA and cccDNA were analyzed by real-time PCR using a TaqMan PCR assay. The primers and probe used to amplify HBV total DNA were: HBV total DNA forward: 5′-[…]-3′ (SEQ ID NO: 58), reverse 5′-[…]-3′ (SEQ ID NO: 59), and internal probe: 5′-FAM-[…]-TAMRA-3′ (SEQ ID NO: 60). The primers and probe used to amplify HBV cccDNA (Genotype D, subtype ayw) were: forward: 5′-[…]-3′ (SEQ ID NO: 61), reverse 5′-[…]-3′ (SEQ ID NO: 62), and internal probe 5′-FAM-[…]-TAMRA-3′ (SEQ ID NO: 63). The PCR reactions were performed in 20 μl volumes and contained 2 μl DNA. The PCR conditions were: 95° C. for 10 min, followed by 45 cycles of 95° C. for 15 s and 64° C. for 30 s. The DNA levels were determined by the […] method and values were normalized to the control group.
Sodium taurocholate cotransporting polypeptide (NTCP) is a functional receptor for human HBV. The human hepatoma cell line HepG2 is not susceptible to HBV infection due to lack of NTCP; however, HepG2 cells transfected with NTCP expression plasmids (HepG2-NTCP) are susceptible to natural HBV infection. To further characterize the inhibitory effects of the synthetic gRNA/Cas9 RNPs on HBV replication, HepG2-NTCP cells were incubated with supernatants collected from gRNA/Cas9 RNP-transfected HepDE19 cell culture (after 4 days). Genomic DNA was isolated from HepG2-NTCP cells on day 8 after HBV infection and used for the assessment of HBV replication.

Row | Sequence | HBV cccDNA levels (HBV cccDNA) | HBV DNA in HepG2-NTCP cells (HBV in HepG2-NTCP cells) | HBV cccDNA in HepG2-NTCP cells (HBV in HepG2-NTCP cells) | HBV DNA in HepG2-NTCP cells (HBV in HepG2-NTCP cells; listed as gRNA9/Cas9) | HBV cccDNA in HepG2-NTCP cells (HBV in HepG2-NTCP cells; listed as gRNA9/Cas9) | HBV DNA in HepG2-NTCP cells (HBV in HepG2-NTCP cells; listed as gRNA5/Cas9) | HBV cccDNA in HepG2-NTCP cells (HBV in HepG2-NTCP cells; listed as gRNA5/Cas9)
1 | GGTCTCCATGCGACGTGCAGNGG [gRNA9] | significantly reduced | significantly lower | remarkably lower | significantly fewer copies | significantly fewer copies |  | 
2 | GTTATCGCTGGATGTGTCTGNGG (guide GUUAUCGCUGGAUGUGUCUGNGG; complexed with Cas9 protein, chemistry not fully specified) [gRNA5, tested as synthetic gRNA/Cas9 RNP] | significantly reduced | significantly lower | remarkably lower |  |  | significantly fewer copies | significantly fewer copies
